Results from patent US12350270B2, “Antimalarial agents” (Merck Sharp & Dohme LLC, priority 2019, dated 2025).

The compounds below were run on parasites (ring stage, in human red blood cell culture) (assay: Parasite LDH growth assay (antiparasite potency, Parasite Assay)). Details: 0.7% rings, 2% haematocrit, 72 hours at 37° C., LDH readout of parasite growth.
Type: cell-based, Plasmodium falciparum
Procedure, shortened: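 Ring-stage parasites at 0.7% parasitemia and 2% haematocrit, in RPMI-Hepes/bicarbonate with 5% heat-inactivated human serum and 0.5% albumax, were added to compound-containing medium. Cultures grew 72 h at 37 °C in gassed humidified boxes. Plates were then frozen overnight at −80 °C, thawed 4 h, and growth was measured by LDH assay.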
Work on `CC(C)[C@]1(C)CC(=O)N([C@@H]2CC(C)(C)Oc3ccc(C(=O)N[C@@H]4c5ccccc5OC[C@H]4O)cc32)C(=N)N1` [Example 40A, (R)-N-((3S,4R)-3-hydroxychroman-4-yl)-4-((S)-2-imino-4-isopropyl-4-methyl-6-oxotetrahydropyrimidin-1(2H)-yl)-2,2-dimethylchromane-6-carboxamide] yielded an EC50 of 69.5 nM.
`CC(C)[C@]1(C)CC(=O)N([C@@H]2CC(C)(C)Oc3ccc(C(=O)N[C@@H]4c5ccccc5OC[C@H]4O)cc32)C(=N)N1` [Example 45A, (R)-N-((3S,4R)-3-hydroxychroman-4-yl)-4-((S)-2-imino-4-isopropyl-4-methyl-6-oxotetrahydropyrimidin-1(2H)-yl)-2,2-dimethylchromane-6-carboxamide] gave an EC50 of 2.6 nM.
`CCC1(CC)CC(=O)N([C@@H]2CC(C)(C)Oc3ccc(C(=O)N[C@@H]4c5cc(F)ccc5OC(C)(C)[C@H]4O)cc32)C(=N)N1` [Example 46A, (R)-4-(4,4-diethyl-2-imino-6-oxotetrahydropyrimidin-1(2H)-yl)-N-((3S,4R)-6-fluoro-3-hydroxy-2,2-dimethylchroman-4-yl)-2,2-dimethylchromane-6-carboxamide] showed an EC50 of 130 nM.
Compound `CCC1(CC)CC(=O)N([C@@H]2CC(C)(C)Oc3ccc(C(=O)N[C@@H]4c5cc(F)ccc5OC(C)(C)[C@H]4O)cc32)C(=N)N1` [Example 53A, (R)-4-(4,4-diethyl-2-imino-6-oxotetrahydropyrimidin-1(2H)-yl)-N-((3S,4R)-6-fluoro-3-hydroxy-2,2-dimethylchroman-4-yl)-2,2-dimethylchromane-6-carboxamide] has an EC50 of 0.3 nM.

Same assay, conditions: Plasmodium falciparum, Erythrocyte, 72 h, 0.7% rings, 2% haematocrit, 72 hours at 37° C., LDH readout of parasite growth
With `CCC1(CC)CC(=O)N([C@@H]2CCOc3c(C#N)cc(C(=O)N[C@@H]4c5ccccc5OC(C)(C)[C@H]4O)cc32)C(=N)N1` [Example 28A, (R)-8-cyano-4-(4,4-diethyl-2-imino-6-oxotetrahydropyrimidin-1(2H)-yl)-N-((3S,4R)-3-hydroxy-2,2-dimethylchroman-4-yl)chromane-6-carboxamide] the EC50 was 1.8 nM.
`CCC1(CC)CC(=O)N([C@@H]2CCOc3c(Cl)cc(C(=O)N[C@@H]4c5ccccc5OC(C)(C)[C@H]4O)cc32)C(=N)N1` [Example 29A, (R)-8-chloro-4-(4,4-diethyl-2-imino-6-oxotetrahydropyrimidin-1(2H)-yl)-N-((3S,4R)-3-hydroxy-2,2-dimethylchroman-4-yl)chromane-6-carboxamide] gave an EC50 of 1 nM.
In the case of `CCC1(CC)CC(=O)N([C@@H]2CCOc3c(Cl)cc(C(=O)N[C@H]4c5ccccc5OC(C)(C)[C@@H]4O)cc32)C(=N)N1` [Example 29B, (R)-8-chloro-4-(4,4-diethyl-2-imino-6-oxotetrahydropyrimidin-1(2H)-yl)-N-((3R,4S)-3-hydroxy-2,2-dimethylchroman-4-yl)chromane-6-carboxamide], the EC50 is reported as 39.7 nM.
With `CCC1(CC)CC(=O)N([C@@H]2CCOc3ccc(C(=O)N[C@@H]4c5ccccc5OC(C)(C)[C@H]4O)nc32)C(=N)N1` [Example 30A, (R)-4-(4,4-diethyl-2-imino-6-oxotetrahydropyrimidin-1(2H)-yl)-N-((3S,4R)-3-hydroxy-2,2-dimethylchroman-4-yl)-3,4-dihydro-2H-pyrano[3,2-b]pyridine-6-carboxamide] the EC50 was 0.8 nM.
`CCC1(CC)CC(=O)N([C@@H]2CCOc3ccc(C(=O)N[C@@H]4CC(C)(C)Oc5ccccc54)nc32)C(=N)N1` [Example 31A, (R)-4-(4,4-diethyl-2-imino-6-oxotetrahydropyrimidin-1(2H)-yl)-N-((R)-2,2-dimethylchroman-4-yl)-3,4-dihydro-2H-pyrano[3,2-b]pyridine-6-carboxamide] gave an EC50 of 22 nM.
With `CCC1(CC)CC(=O)N([C@@H]2CCOc3ccc(C(=O)N[C@H]4CC(C)(C)Oc5ccccc54)nc32)C(=N)N1` [Example 31B, (R)-4-(4,4-diethyl-2-imino-6-oxotetrahydropyrimidin-1(2H)-yl)-N-((S)-2,2-dimethylchroman-4-yl)-3,4-dihydro-2H-pyrano[3,2-b]pyridine-6-carboxamide] the EC50 was 1 nM.
With `CCC1(CC)CC(=O)N([C@@H]2CC(C)(C)Oc3ccc(C(=O)N[C@H]4CCOc5ccccc54)cc32)C(=N)N1` [Example 33A, (R)-N-((S)-chroman-4-yl)-4-(4,4-diethyl-2-imino-6-oxotetrahydropyrimidin-1(2H)-yl)-2,2-dimethylchromane-6-carboxamide] the EC50 was 28.3 nM.
`CCC1(CC)CC(=O)N([C@@H]2CC(C)(C)Oc3ccc(C(=O)N[C@@H]4c5ccccc5OC(C)(C)[C@H]4O)cc32)C(=N)N1` [Example 34A, (R)-4-(4,4-diethyl-2-imino-6-oxotetrahydropyrimidin-1(2H)-yl)-N-((3S,4R)-3-hydroxy-2,2-dimethylchroman-4-yl)-2,2-dimethylchromane-6-carboxamide] showed an EC50 of 1.2 nM.
For `CCC1(CC)CC(=O)N([C@@H]2CC(C)(C)Oc3ccc(C(=O)N[C@@H]4c5ccccc5C[C@H]4O)cc32)C(=N)N1` [Example 35A, (R)-4-(4,4-diethyl-2-imino-6-oxotetrahydropyrimidin-1(2H)-yl)-N-((lR,2R)-2-hydroxy-2,3-dihydro-1H-inden-1-yl)-2,2-dimethylchromane-6-carboxamide], the EC50 was 2.4 nM.
`CCC1(CC)CC(=O)N([C@@H]2CC(C)(C)Oc3ccc(C(=O)N[C@@H]4c5ccccc5OC[C@@H]4O)cc32)C(=N)N1` [Example 36A, (R)-4-(4,4-diethyl-2-imino-6-oxotetrahydropyrimidin-1(2H)-yl)-N-((3R,4R)-3-hydroxychroman-4-yl)-2,2-dimethylchromane-6-carboxamide] gave an EC50 of 8.9 nM.
In the case of `CCC1(CC)CC(=O)N([C@@H]2CC(C)(C)Oc3ccc(C(=O)N[C@@H]4c5ccccc5OC[C@H]4O)cc32)C(=N)N1` [Example 36B, (R)-4-(4,4-diethyl-2-imino-6-oxotetrahydropyrimidin-1(2H)-yl)-N-((3 S,4R)-3-hydroxychroman-4-yl)-2,2-dimethylchromane-6-carboxamide], the EC50 is reported as 2.2 nM.
`CC(C)[C@]1(C)CC(=O)N([C@@H]2CC(C)(C)Oc3ccc(C(=O)N[C@H]4CCOc5ccccc54)cc32)C(=N)N1` [Example 37A, (R)-N-((S)-chroman-4-yl)-4-((S)-2-imino-4-isopropyl-4-methyl-6-oxotetrahydropyrimidin-1(2H)-yl)-2,2-dimethylchromane-6-carboxamide] gave an EC50 of 74.4 nM.
With `CC(C)[C@]1(C)CC(=O)N([C@@H]2CC(C)(C)Oc3ccc(C(=O)N[C@@H]4c5ccccc5OC(C)(C)[C@H]4O)cc32)C(=N)N1` [Example 38A, (R)-N-((3 S,4R)-3-hydroxy-2,2-dimethylchroman-4-yl)-4-((S)-2-imino-4-isopropyl-4-methyl-6-oxotetrahydropyrimidin-1(2H)-yl)-2,2-dimethylchromane-6-carboxamide] the EC50 was 2.8 nM.
With `CC(C)[C@]1(C)CC(=O)N([C@@H]2CC(C)(C)Oc3ccc(C(=O)N[C@@H]4c5ccccc5C[C@H]4O)cc32)C(=N)N1` [Example 39A, (R)-N-((1R,2R)-2-hydroxy-2,3-dihydro-1H-inden-l-yl)-4-((S)-2-imino-4-isopropyl-4-methyl-6-oxotetrahydropyrimidin-1(2H)-yl)-2,2-dimethylchromane-6-carboxamide] the EC50 was 29.9 nM.
`CC(C)[C@]1(C)CC(=O)N([C@@H]2CC(C)(C)Oc3ccc(C(=O)N[C@@H]4c5cc(F)ccc5OC(C)(C)[C@H]4O)cc32)C(=N)N1` [Example 41A, (R)-N-((3 S,4R)-6-fluoro-3-hydroxy-2,2-dimethylchroman-4-yl)-4-((S)-2-imino-4-isopropyl-4-methyl-6-oxotetrahydropyrimidin-1(2H)-yl)-2,2-dimethylchromane-6-carboxamide] was tested, and the EC50 was 2.8 nM.
For `CC1(C)CC(=O)N([C@@H]2CC(C)(C)Oc3ccc(C(=O)N[C@@H]4c5ccccc5OC(C)(C)[C@H]4O)cc32)C(=N)N1` [Example 47A, (R)-N-((3S,4R)-3-hydroxy-2,2-dimethylchroman-4-yl)-4-(2-imino-4,4-dimethyl-6-oxotetrahydropyrimidin-1(2H)-yl)-2,2-dimethylchromane-6-carboxamide], the EC50 was 4.7 nM.
For `CC1(C)CC(=O)N([C@@H]2CC(C)(C)Oc3ccc(C(=O)N[C@@H]4c5ccccc5C[C@H]4O)cc32)C(=N)N1` [Example 48A, (R)-N-((lR,2R)-2-hydroxy-2,3-dihydro-1H-inden-l-yl)-4-(2-imino-4,4-dimethyl-6-oxotetrahydropyrimidin-1(2H)-yl)-2,2-dimethylchromane-6-carboxamide], the EC50 was 37.5 nM.
`CC1(C)CC(=O)N([C@@H]2CC(C)(C)Oc3ccc(C(=O)N[C@@H]4c5ccccc5OC[C@H]4O)cc32)C(=N)N1` [Example 49A, (R)-N-((3S,4R)-3-hydroxychroman-4-yl)-4-(2-imino-4,4-dimethyl-6-oxotetrahydropyrimidin-1(2H)-yl)-2,2-dimethylchromane-6-carboxamide] gave an EC50 of 49 nM.
`CCC1(CC)C[C@@H](N2C(=N)NC(C)(C)CC2=O)c2cc(C(=O)N[C@@H]3c4ccccc4OC(C)(C)[C@H]3O)ccc2O1` [Example 50A, (R)-2,2-diethyl-N-((3S,4R)-3-hydroxy-2,2-dimethylchroman-4-yl)-4-(2-imino-4,4-dimethyl-6-oxotetrahydropyrimidin-1(2H)-yl)chromane-6-carboxamide] showed an EC50 of 3.7 nM.
With `CCC1(CC)C[C@@H](N2C(=N)NC(C)(C)CC2=O)c2cc(C(=O)N[C@@H]3c4ccccc4C[C@H]3O)ccc2O1` [Example 51A, (R)-2,2-diethyl-N-((1R,2R)-2-hydroxy-2,3-dihydro-1H-inden-l-yl)-4-(2-imino-4,4-dimethyl-6-oxotetrahydropyrimidin-1(2H)-yl)chromane-6-carboxamide] the EC50 was 22.5 nM.
For `CCC1(CC)C[C@@H](N2C(=N)NC(C)(C)CC2=O)c2cc(C(=O)N[C@@H]3c4ccccc4OC[C@H]3O)ccc2O1` [Example 52A, (R)-2,2-diethyl-N-((3S,4R)-3-hydroxychroman-4-yl)-4-(2-imino-4,4-dimethyl-6-oxotetrahydropyrimidin-1(2H)-yl)chromane-6-carboxamide], the EC50 was 14.4 nM.
